Test results as given in ChEMBL document CHEMBL5727282, “Dihydropyrrolopyridine inhibitors of ROR-gamma” (2019).

Molecular target: T1, Nuclear receptor ROR-gamma (Homo sapiens, UniProt P51449)
T1 sequence (P51449 whole entry): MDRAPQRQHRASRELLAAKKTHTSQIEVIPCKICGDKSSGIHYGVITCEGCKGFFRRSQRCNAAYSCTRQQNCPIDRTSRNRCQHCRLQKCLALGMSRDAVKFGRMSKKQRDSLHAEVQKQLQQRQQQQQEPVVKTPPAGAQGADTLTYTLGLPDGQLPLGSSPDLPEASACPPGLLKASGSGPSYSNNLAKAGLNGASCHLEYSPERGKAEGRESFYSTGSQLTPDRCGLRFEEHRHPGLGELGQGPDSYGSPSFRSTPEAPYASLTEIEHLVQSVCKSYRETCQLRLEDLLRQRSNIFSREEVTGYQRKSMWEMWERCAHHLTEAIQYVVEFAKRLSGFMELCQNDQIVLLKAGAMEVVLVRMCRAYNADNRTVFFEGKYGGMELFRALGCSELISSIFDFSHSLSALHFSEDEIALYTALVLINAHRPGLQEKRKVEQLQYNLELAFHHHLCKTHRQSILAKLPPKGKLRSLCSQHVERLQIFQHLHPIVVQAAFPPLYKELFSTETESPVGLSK
Assay: ROR gamma t 5xRORE Assay in Jurkat Cells (Assay 2): Compounds of the present invention were tested for ROR gamma inverse agonist activity in a cell-based, transcriptional activity assay. […] (Promega, Cat. # N1021) using KpnI and HindIII restriction sites. […] Luciferase activity in the conditioned supernatants was determined with NanoGlo assay reagents (Promega, Cat.# N1130).

IC50: < 100 nM
SMILES: CCS(=O)(=O)c1ccc(C2(NC(=O)c3cnc4c(c3)CN(Cc3ccc(C(F)(F)F)cc3)[C@H]4C(C)C)CC2)nc1
